Results from the NIST ThermoML archive (doi:10.1021/je8001442).

Test: excess molar enthalpy (molar enthalpy of mixing); xn = mol fraction of the nth substance listed
Settings: Fluid (supercritical or subcritical phases), Flow calorimetry

CC(C)OC(C)C [diisopropyl ether] + O=C=O
excess molar enthalpy [kcal/mol]
Settings | 298.15 K | 303.15 K | 308.15 K
5000 kPa, x2 = 0.1255 | -0.279 | -0.251 | -0.293
5000 kPa, x2 = 0.2326 | -0.527 | -0.526 | -0.53
5000 kPa, x2 = 0.3249 | -0.734 | -0.741 | -0.745
5000 kPa, x2 = 0.4054 | -0.913 | -0.922 | -0.924
5000 kPa, x2 = 0.4762 | -1.07 | -1.08 | -1.09
5000 kPa, x2 = 0.5389 | -1.2 | -1.22 | -1.22
5000 kPa, x2 = 0.5949 | -1.33 | -1.35 | -1.34
5000 kPa, x2 = 0.6452 | -1.45 | -1.46 | -1.45
5000 kPa, x2 = 0.6906 | -1.55 | -1.55 | -1.55
5000 kPa, x2 = 0.7317 | -1.62 | -1.64 | –
5000 kPa, x2 = 0.7692 | -1.71 | – | –
5000 kPa, x2 = 0.8036 | -1.79 | – | –
5000 kPa, x2 = 0.8351 | -1.85 | – | –
5500 kPa, x2 = 0.1263 | -0.277 | -0.278 | -0.275
5500 kPa, x2 = 0.2338 | -0.496 | -0.505 | -0.525
5500 kPa, x2 = 0.3265 | -0.682 | -0.715 | -0.709
5500 kPa, x2 = 0.4071 | -0.861 | -0.881 | -0.891
5500 kPa, x2 = 0.478 | -0.991 | -1.03 | -1.04
5500 kPa, x2 = 0.5407 | -1.13 | -1.16 | -1.18
5500 kPa, x2 = 0.5966 | -1.25 | -1.28 | -1.29
5500 kPa, x2 = 0.6468 | -1.34 | -1.38 | -1.4
5500 kPa, x2 = 0.6921 | -1.45 | -1.48 | -1.49
5500 kPa, x2 = 0.7331 | -1.52 | -1.56 | -1.57
5500 kPa, x2 = 0.7705 | -1.61 | -1.64 | –
5500 kPa, x2 = 0.8047 | -1.67 | -1.69 | –
5500 kPa, x2 = 0.8361 | -1.74 | – | –
5500 kPa, x2 = 0.865 | -1.78 | – | –
5500 kPa, x2 = 0.8918 | -1.82 | – | –
5500 kPa, x2 = 0.9019 | -1.83 | – | –
6000 kPa, x2 = 0.127 | -0.232 | -0.255 | -0.277
6000 kPa, x2 = 0.235 | -0.442 | -0.479 | -0.494
6000 kPa, x2 = 0.3279 | -0.621 | -0.675 | -0.693
6000 kPa, x2 = 0.4087 | -0.761 | -0.839 | -0.853
6000 kPa, x2 = 0.4796 | -0.89 | -0.973 | -1.02
6000 kPa, x2 = 0.5423 | -1.01 | -1.09 | -1.12
6000 kPa, x2 = 0.5982 | -1.09 | -1.21 | -1.22
6000 kPa, x2 = 0.6483 | -1.19 | -1.32 | -1.34
6000 kPa, x2 = 0.6934 | -1.27 | -1.4 | -1.42
6000 kPa, x2 = 0.7344 | -1.33 | -1.48 | -1.49
6000 kPa, x2 = 0.7716 | -1.4 | -1.54 | -1.56
6000 kPa, x2 = 0.8057 | -1.48 | -1.6 | -1.61
6000 kPa, x2 = 0.8248 | – | – | -1.64
6000 kPa, x2 = 0.837 | -1.52 | -1.66 | –
6000 kPa, x2 = 0.8658 | -1.59 | -1.7 | –
6000 kPa, x2 = 0.8924 | -1.63 | -1.71 | –
6000 kPa, x2 = 0.9171 | -1.65 | – | –
6000 kPa, x2 = 0.931 | -1.63 | – | –
6000 kPa, x2 = 0.94 | -1.67 | – | –
6000 kPa, x2 = 0.9614 | -1.64 | – | –
6000 kPa, x2 = 0.9813 | -1.48 | – | –
6500 kPa, x2 = 0.1277 | – | – | -0.254
6500 kPa, x2 = 0.2361 | – | – | -0.464
6500 kPa, x2 = 0.3292 | – | – | -0.638
6500 kPa, x2 = 0.4101 | – | – | -0.787
6500 kPa, x2 = 0.4811 | – | – | -0.92
6500 kPa, x2 = 0.5438 | – | – | -1.04
6500 kPa, x2 = 0.5996 | – | – | -1.14
6500 kPa, x2 = 0.6496 | – | – | -1.24
6500 kPa, x2 = 0.6947 | – | – | -1.33
6500 kPa, x2 = 0.7355 | – | – | -1.39
6500 kPa, x2 = 0.7727 | – | – | -1.45
6500 kPa, x2 = 0.8066 | – | – | -1.5
6500 kPa, x2 = 0.8378 | – | – | -1.56
6500 kPa, x2 = 0.8665 | – | – | -1.6
7000 kPa, x2 = 0.1283 | – | – | -0.232
7000 kPa, x2 = 0.237 | – | – | -0.421
7000 kPa, x2 = 0.3304 | – | – | -0.587
7000 kPa, x2 = 0.4114 | – | – | -0.728
7000 kPa, x2 = 0.4824 | – | – | -0.857
7000 kPa, x2 = 0.5451 | – | – | -0.95
7000 kPa, x2 = 0.6009 | – | – | -1.05
7000 kPa, x2 = 0.6509 | – | – | -1.13
7000 kPa, x2 = 0.6958 | – | – | -1.21
7000 kPa, x2 = 0.7366 | – | – | -1.26
7000 kPa, x2 = 0.7736 | – | – | -1.33
7000 kPa, x2 = 0.8075 | – | – | -1.38
7000 kPa, x2 = 0.8385 | – | – | -1.42
7000 kPa, x2 = 0.8671 | – | – | -1.44
7000 kPa, x2 = 0.8935 | – | – | -1.46
7000 kPa, x2 = 0.9179 | – | – | -1.47
7500 kPa, x2 = 0.1289 | – | – | -0.2
7500 kPa, x2 = 0.238 | – | – | -0.356
7500 kPa, x2 = 0.3315 | – | – | -0.488
7500 kPa, x2 = 0.4127 | – | – | -0.625
7500 kPa, x2 = 0.4837 | – | – | -0.727
7500 kPa, x2 = 0.5464 | – | – | -0.819
7500 kPa, x2 = 0.6021 | – | – | -0.904
7500 kPa, x2 = 0.652 | – | – | -0.973
7500 kPa, x2 = 0.6969 | – | – | -1.04
7500 kPa, x2 = 0.7376 | – | – | -1.1
7500 kPa, x2 = 0.7745 | – | – | -1.15
7500 kPa, x2 = 0.8083 | – | – | -1.19
7500 kPa, x2 = 0.8392 | – | – | -1.24
7500 kPa, x2 = 0.8677 | – | – | -1.25
7500 kPa, x2 = 0.894 | – | – | -1.28
7500 kPa, x2 = 0.9183 | – | – | -1.26
7500 kPa, x2 = 0.9409 | – | – | -1.24
7500 kPa, x2 = 0.962 | – | – | -1.17
